Results from ChEMBL document CHEMBL1201862, “PubChem BioAssay data set” (2004).
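48-hour exposure; five concentrations; linearly interpolated endpoints. GI50 = concentration required for 50% inhibition of growth.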 Calls of active or inactive are those of the source. No stated cut-off is given here; in the data, active = GI50 up to about 1.1 µM and inactive = higher.

Columns and labels:
Experiment in all cases: NCI-60 cell line screen, 48 h
786-0 = system: 786-0
A549 = system: A549
COLO 205 = system: COLO 205
HCT-116 = system: HCT-116
HCT-15 = system: HCT-15
HL-60 = system: HL-60
KM-20L2 = system: KM-20L2
KM12 = system: KM12
M14 = system: M14
Malme-3M = system: Malme-3M
SF-295 = system: SF-295
SK-MEL-5 = system: SK-MEL-5
SNB-75 = system: SNB-75
SR = system: SR
TK-10 = system: TK-10
U-251 = system: U-251
UACC-257 = system: UACC-257
BT-549 = system: BT-549
MCF7 = system: MCF7
MDA-MB-435 = system: MDA-MB-435

| SMILES | GI50 (786-0) | GI50 (A549) | GI50 (COLO 205) | GI50 (HCT-116) | GI50 (HCT-15) [µM] | GI50 (HL-60) | GI50 (KM-20L2) | GI50 (KM12) | GI50 (M14) | GI50 (Malme-3M) | GI50 (SF-295) | GI50 (SK-MEL-5) | GI50 (SNB-75) | GI50 (SR) | GI50 (TK-10) | GI50 (U-251) | GI50 (UACC-257) | GI50 (BT-549) | GI50 (MCF7) | GI50 (MDA-MB-435) |
| --- | --- | --- | --- | --- | --- | --- | --- | --- | --- | --- | --- | --- | --- | --- | --- | --- | --- | --- | --- | --- |
| CSC(=S)N/N=C/c1nccc2ccccc12 | 2.39 µM (inactive) | 1.65 µM (inactive) | 0.138 µM (active) | 1.25 µM (inactive) | 3.45 | 0.372 µM (active) | 0.43 µM (active) | 2.68 µM (inactive) | 1.36 µM (inactive) | 1.34 µM (inactive) | 1.48 µM (inactive) | 1.08 µM (active) | 0.522 µM (active) | 0.291 µM (active) | 7.08 µM (inactive) | 0.875 µM (active) | 2.07 µM (inactive) | – | – | – |
| CC(=O)O[C@]1(C)OC(=O)[C@@H](CC(C)C)N1[N+](=O)[O-] | > 100 µM (inactive) | > 100 µM (inactive) | > 100 µM (inactive) | > 100 µM (inactive) | > 100 | > 100 µM (inactive) | > 100 µM (inactive) | > 100 µM (inactive) | > 100 µM (inactive) | > 100 µM (inactive) | > 100 µM (inactive) | > 100 µM (inactive) | > 100 µM (inactive) | > 100 µM (inactive) | > 100 µM (inactive) | > 100 µM (inactive) | > 100 µM (inactive) | – | – | – |
| CC1(C)OC(=O)C(=C2CC(c3ccccc3)c3ccccc32)C(=O)O1 (configuration not stated) | > 100 µM (inactive) | > 100 µM (inactive) | > 100 µM (inactive) | > 100 µM (inactive) | > 100 | > 100 µM (inactive) | > 100 µM (inactive) | – | > 100 µM (inactive) | > 100 µM (inactive) | > 100 µM (inactive) | > 100 µM (inactive) | > 100 µM (inactive) | > 100 µM (inactive) | > 100 µM (inactive) | > 100 µM (inactive) | > 100 µM (inactive) | – | – | – |
| C[C@]12CCC3[C@@H](CC[C@@H]4c5nonc5CC[C@]34C)C1CCC(=O)N2 (some centres not stated) | > 100 µM (inactive) | > 100 µM (inactive) | > 100 µM (inactive) | > 100 µM (inactive) | > 100 | 93.8 µM (inactive) | > 100 µM (inactive) | > 100 µM (inactive) | > 100 µM (inactive) | > 100 µM (inactive) | > 100 µM (inactive) | > 100 µM (inactive) | 55 µM (inactive) | – | > 100 µM (inactive) | > 100 µM (inactive) | > 100 µM (inactive) | – | – | – |
| [O-][S+]1Nc2cccc(C(F)(F)F)c2S1 (configuration not stated) | 42.1 µM (inactive) | 34 µM (inactive) | 19.8 µM (inactive) | 27.3 µM (inactive) | 18.6 | 7.66 µM (inactive) | 29.9 µM (inactive) | 21.4 µM (inactive) | 65.3 µM (inactive) | 51.2 µM (inactive) | 45.4 µM (inactive) | 42 µM (inactive) | 29.6 µM (inactive) | 25.5 µM (inactive) | 34.4 µM (inactive) | 31.3 µM (inactive) | 32.1 µM (inactive) | – | – | – |
| O=c1nc2sc3ccc4ccccc4c3n2nc1-c1ccccc1 | 18.7 µM (inactive) | 28.6 µM (inactive) | 56.2 µM (inactive) | 21.7 µM (inactive) | 45.1 | > 100 µM (inactive) | 62.8 µM (inactive) | 63.5 µM (inactive) | 44.4 µM (inactive) | 21.4 µM (inactive) | 16.8 µM (inactive) | 59.2 µM (inactive) | 21.1 µM (inactive) | 71.6 µM (inactive) | 23.1 µM (inactive) | 19 µM (inactive) | 99.3 µM (inactive) | – | – | – |
| CC(C)N1CC2CC(CN(C(=O)c3ccccc3)C2)C1.[O-][Cl+3]([O-])([O-])O | > 100 µM (inactive) | > 100 µM (inactive) | > 100 µM (inactive) | – | > 100 | > 100 µM (inactive) | > 100 µM (inactive) | > 100 µM (inactive) | > 100 µM (inactive) | > 100 µM (inactive) | > 100 µM (inactive) | > 100 µM (inactive) | > 100 µM (inactive) | – | > 100 µM (inactive) | > 100 µM (inactive) | > 100 µM (inactive) | – | – | – |
| CCOC(=O)NC(=O)c1cn(CCN2CCN(C(=O)CCCCCCCCCCNc3ncnc4[nH]cnc34)CC2)c(=O)[nH]c1=O | > 100 µM (inactive) | > 100 µM (inactive) | > 100 µM (inactive) | 40.1 µM (inactive) | > 100 | 46.7 µM (inactive) | > 100 µM (inactive) | > 100 µM (inactive) | > 100 µM (inactive) | 6.7 µM (inactive) | > 100 µM (inactive) | 50.4 µM (inactive) | > 100 µM (inactive) | > 100 µM (inactive) | > 100 µM (inactive) | > 100 µM (inactive) | > 100 µM (inactive) | – | – | – |
| C[C@@H]1CC(=O)C2CCCC1C2=O (some centres not stated) | > 100 µM (inactive) | > 100 µM (inactive) | 45.7 µM (inactive) | > 100 µM (inactive) | > 100 | > 100 µM (inactive) | > 100 µM (inactive) | > 100 µM (inactive) | > 100 µM (inactive) | > 100 µM (inactive) | > 100 µM (inactive) | > 100 µM (inactive) | > 100 µM (inactive) | > 100 µM (inactive) | > 100 µM (inactive) | > 100 µM (inactive) | > 100 µM (inactive) | – | – | – |
| COc1cc2cc(OC)c3cc4c(cc3c2c(OC)c1OC)OCO4 | 27.9 µM (inactive) | 44.6 µM (inactive) | 19.6 µM (inactive) | 38.2 µM (inactive) | 12.8 | 15.3 µM (inactive) | 11.6 µM (inactive) | 14.2 µM (inactive) | 19.7 µM (inactive) | 52.4 µM (inactive) | 28.1 µM (inactive) | 23.4 µM (inactive) | 7.55 µM (inactive) | 18.5 µM (inactive) | 48.3 µM (inactive) | 20.8 µM (inactive) | 34.9 µM (inactive) | – | – | – |
| COc1cc(C(=O)C/C(CCC(=O)Nc2ccccc2[N+](=O)[O-])=N\NC(N)=O)ccc1O | > 100 µM (inactive) | > 100 µM (inactive) | > 100 µM (inactive) | > 100 µM (inactive) | > 100 | > 100 µM (inactive) | > 100 µM (inactive) | > 100 µM (inactive) | > 100 µM (inactive) | > 100 µM (inactive) | > 100 µM (inactive) | > 100 µM (inactive) | > 100 µM (inactive) | > 100 µM (inactive) | > 100 µM (inactive) | > 100 µM (inactive) | > 100 µM (inactive) | – | – | – |
| O=C(/C=C/c1ccc(Br)cc1)c1ccc(NCc2nc3ccccc3[nH]2)cc1 | 5.25 µM (inactive) | 5.77 µM (inactive) | 2.53 µM (inactive) | 4.66 µM (inactive) | 3.95 | 5.86 µM (inactive) | 4.83 µM (inactive) | 2.67 µM (inactive) | 17.9 µM (inactive) | 25 µM (inactive) | 4.61 µM (inactive) | 4.4 µM (inactive) | 4.34 µM (inactive) | 5.69 µM (inactive) | 11.1 µM (inactive) | 3.83 µM (inactive) | 3.81 µM (inactive) | – | – | – |
| O=C(CCc1ccccc1)NS(=O)(=O)c1ccccc1 | > 100 µM (inactive) | > 100 µM (inactive) | > 100 µM (inactive) | > 100 µM (inactive) | – | > 100 µM (inactive) | > 100 µM (inactive) | > 100 µM (inactive) | > 100 µM (inactive) | > 100 µM (inactive) | > 100 µM (inactive) | – | > 100 µM (inactive) | > 100 µM (inactive) | > 100 µM (inactive) | > 100 µM (inactive) | > 100 µM (inactive) | – | – | – |
| C1CCOC2(CCC3(CC2)OCCCCO3)OC1 | > 100 µM (inactive) | > 100 µM (inactive) | > 100 µM (inactive) | > 100 µM (inactive) | > 100 | > 100 µM (inactive) | > 100 µM (inactive) | > 100 µM (inactive) | > 100 µM (inactive) | > 100 µM (inactive) | – | > 100 µM (inactive) | > 100 µM (inactive) | > 100 µM (inactive) | > 100 µM (inactive) | > 100 µM (inactive) | > 100 µM (inactive) | – | – | – |
| CCCC(O)[C@@H](O)c1ccc2c(c1O)C(=O)c1c(OC)cccc1C2=O (some centres not stated) | 37.5 µM (inactive) | 44 µM (inactive) | 20.9 µM (inactive) | 38.5 µM (inactive) | 26.2 | 18.4 µM (inactive) | 50.9 µM (inactive) | 35.6 µM (inactive) | 31.6 µM (inactive) | 40.7 µM (inactive) | 33 µM (inactive) | 16.8 µM (inactive) | 47 µM (inactive) | 26.4 µM (inactive) | 51.4 µM (inactive) | 27.2 µM (inactive) | 29.9 µM (inactive) | – | – | – |
| C[N+](C)(C)CC1CCC(C[N+](C)(C)C)C1=O (configuration not stated) | 1.91 µM (inactive) | 18.7 µM (inactive) | – | 1.71 µM (inactive) | 1.78 | – | 3.18 µM (inactive) | 4.65 µM (inactive) | 1.72 µM (inactive) | 1.08 µM (active) | 20.5 µM (inactive) | 9.02 µM (inactive) | 1.95 µM (inactive) | 0.4 µM (active) | 3.3 µM (inactive) | 9.12 µM (inactive) | 2.92 µM (inactive) | 17 µM (inactive) | 1.75 µM (inactive) | 16.3 µM (inactive) |
| Cn1c2ccccc2c2[nH]cc3nc4ccccc4c-3c21 | > 100 µM (inactive) | 22.6 µM (inactive) | 16.9 µM (inactive) | 12.6 µM (inactive) | 19.9 | 20.6 µM (inactive) | 16.7 µM (inactive) | 17 µM (inactive) | 17.9 µM (inactive) | > 100 µM (inactive) | 22.1 µM (inactive) | 18.1 µM (inactive) | 19.5 µM (inactive) | – | 22.3 µM (inactive) | 18.2 µM (inactive) | 22.3 µM (inactive) | – | – | – |
